“Also recorded” adds a separate entry of the source.

The text below walks through data of patent publication US20250025387A1, “COMPOSITION FOR THE TREATMENT OF THE SKIN OF DIABETES PATIENTS” (MIBELLE AG, priority 2021, published 2025).

In one test the test system is loricrin. Description: Loricrin expression stain of 3D epidermis (immunohistochemistry). The class given is cell-based, human. The following applies: 1.1 mM apical, 0.3 mM CaCl2·2H2O basal, 9 days of differentiation. As for the experimental part: (§1) The effect of the Ca^2+ phospholipid complexes on the differentiation of 3D-reconstructed epidermis was investigated. To this end, keratinocyte progenitor cells were cultivated in low-calcium growth medium (TAK-GM, 0.03 mM calcium chloride dihydrate (CaCl2·2H2O)) and were then used to reconstruct a 3D epidermis. For this purpose, the medium was replaced by a 3D differentiation medium (TAK-3D) containing 1.1 mM CaCl2·2H2O and the cells were grown in the medium for a further day. The cultures were then contacted with the air in order to induce differentiation and formation of the skin barrier, and grown for a further 9 days with changing of the medium every second day in the following way: • Condition 1: 1.1 mM CaCl2·2H2O from the basal side (TAK-3D). This is the standard condition for efficient epidermis formation. • Condition 2: 0.3 mM CaCl2·2H2O from the basal side (low calcium concentration). The calcium concentration was reduced here in order to cause impaired formation of the epidermis and thus produce an impaired skin barrier. This is the minimum necessary calcium concentration that must be present on the basal side in order to ensure formation of the epidermis. • Condition 3: 0.3 mM CaCl2·2H2O from the basal side+1.1 mM CaCl2·2H2O from the apical side. Here, calcium was additionally added to the 3D epidermis apically in the form of calcium chloride dihydrate. […]

Test [1] deals with 3D-reconstructed epidermis. Description: Rebuilding of the epidermis structure in an in vitro skin model, control CaCl2 (hematoxylin-eosin stain). The following applies: 1.1 mM apical, 0.3 mM CaCl2·2H2O basal, 9 days of differentiation; dihydrate. The class given is cell-based, human. As for the experimental part: as §1
The next test relates to involucrin. Description: Involucrin expression in skin explants after topical treatment in Franz diffusion cells. The class given is cell-based. The following applies: gel containing 0.013% CaCl2·2H2O, topical 24 hours, 20 mg. As for the experimental part:
The effect of a topical treatment with Ca^2+ phospholipid complex on the expression of the epidermis differentiation marker involucrin was investigated in skin explants. […] Thereafter, the skin explants were washed with 3 ml of water and frozen at −80° C. The tissues were fixed in formaldehyde and embedded in paraffin. Tissue sections of 5 μm were prepared and mounted on glass slides before deparaffination. The slides were stained with hematoxylin-eosin stain to analyze tissue structure. The protein expression of involucrin was determined by immunohistochemical staining and quantified by image analysis.

Consider `O.O.[Ca+2].[Cl-].[Cl-]` [CaCl2·2H2O, calcium chloride dihydrate], for which the “expression of the epidermal differentiation marker loricrin” value with loricrin is recorded as “reduced loricrin production”. The “formation of 3D epidermis (hematoxylin-eosin stain)” value in test [1] is recorded as “impairment of epidermis formation; also recorded: additionally worsened the formation of a 3D epidermis”. Further, in the test on involucrin, the “reduction of involucrin expression compared to the placebo-treated skin explant” value is reported as 91.1%.
